Measurements: patent publication US5385842A, “Anthraquinones as inhibitors of sulfide production from sulfate-reducing bacteria” (E. I. Du Pont de Nemours and Company, priority 1993, dated 1995)

Key:
[1] = test system: Desulfovibrio desulfuricans G100A; assay: microbe, parasite or virus in culture; type: cell-based; conditions: for inhibition at 10 ppm / inhibition at 30 ppm: Desulfovibrio desulfuricans, G100A, read-out: % Inhib. (inhibition of sulfide production)
[2] = test system: B. aureus, B. subtilis, B. stearothermophilus and S. aureus; conditions: background art; cited from earlier work
[3] = test system: Bacillus, Nocardia, Streptomyces, Proteus; conditions: background art; cited from earlier work
[4] = test system: E. coli, Pseudomonas, Salmonella or Sarcina; conditions: background art; cited from earlier work
D. desulfuricans G100A [5] = assay: Effect of dithionite-reduced anthraquinones on growth of D. desulfuricans G100A; type: cell-based
Description: Three anthraquinones, 1,8-dihydroxy-, 1-chloro-, and 3-chloro-2-carboxy- were prepared as 1 ml of 1000 ppm solutions in acetone for the first two compounds or water for the third. These solutions were then treated with 1 mg of the strong reducing agent, sodium dithionite. 50 ul of each solution (for a final culture concentration of 5 ppm) was used immediately to treat growing cultures of D. desulfuricans G100A in BTZ-3 medium as defined in Example 1. The compounds were added to the 10 ml cultures at 15 h of growth.

Desulfovibrio gigas = assay: Sulfide production by resting cells of D. gigas; type: cell-based; conditions: for activity at 0.1 ppm / activity at 0.5 ppm / activity at 2 ppm / activity at 5 ppm: Desulfovibrio, 3 hours at 31° C.; for inhibition of sulfide production (in words): resting cells
Description: Experiments in this example were carried out using resting cells of Desulfovibrio gigas rather than growing cells as was the case for the autoanalyzer system employing the Desulfovibrio desulfuricans G100A strain. […] Thus the experiment examined a different organism, different test system, and a different physiological state for the phenomenon of anthraquinone inhibition of sulfide production by Desulfovibrio sp. Active compounds, as determined by the autoanalyzer, were evaluated in comparison with four additional compounds not evaluated in the autoanalyzer.
500 ml cultures of Desulfovibrio gigas were grown on standard BTZ-3 medium as previously described in Example 1 with 30 mM sodium lactate, 30 mM sodium sulfate and 30 mM sodium fumarate. The culture was harvested after 24 h of growth at 31° C. by centrifugation at 8000 rpm in a GSA Sorvall rotor for 20 minutes. The cell pellet was resuspended in 30 ml of incubation assay mixture of the following composition: 50 mM HEPES buffer pH 7 buffer, 2.5 mM sodium lactate, 2.5 mM sodium sulfate. This suspension was centrifuged again at 10,000 rpm in a Sorvall SS-34 rotor for 5 minutes. The resulting cell pellet was resuspended in 5 ml of incubation assay buffer. Cell densities were generally near 10e10 cells/mi.
The samples were assayed for production in the presence of anthraquinones. 200 ul of the cell suspension was added to 1.2 ml of incubation assay mixture in a 5 ml capacity test tube. The tube was gassed with hydrogen gas for 20 minutes then the anthraquinones were added as ethanolic solutions, the tubes were then gassed with hydrogen again for 5 minutes. The reaction mixtures were then incubated for 3 hours at 31° C. The reactions were stopped by the addition of 200 ul of 1N sodium hydroxide. After 20 minutes the alkaline mixtures were centrifuged in a table top microfuge for 4 minutes at 14,000 rpm to remove cells and cell debris. The supernatant was then assayed for sulfide using the ferric chloride-DPD reagent system as described by Siegel et al., Anal. Blochem., 11:126-132, 1965, herein incorporated by reference.

[6] = test system: D. desulfuricans #ATCC27774; assay: Respiration rate (hydrogen gas uptake) with sulfate as electron acceptor; conditions: Desulfovibrio desulfuricans, ATCC27774, 4 h, pH 7, read-out: Gas Uptake (as percent of control)
D. desulfuricans G100A [7] = assay: Growth of D. desulfuricans G100A after addition of inhibitor at 12 h; type: cell-based
Description: Four 10 ml culture tubes of BTZ-3 medium as defined in Example 1 supplemented with sodium lactate (40 mM) and sodium sulfate (30 mM) and 0.5 ml of reducing agent were inoculated with 100 ul of a fully grown suspension of D. desulfuricans G100A. The culture was allowed to grow and the optical density at 660 nm was monitored until the cells entered into exponential growth (approx. 12-15 h, O.D. 660=0.1-0.2). At this time 100 ul of a 300 ppm solution of 1,8 dihydroxyanthraquinone, 1-chloranthraquinone or 3-chloro-2-anthraquinone carboxylic acid, respectively, was added to one of the tubes. The ethanol:water (80:20) solvent (100 μl ) was added to the fourth tube to serve as an uninhibited control.
#3 ppm inhibitor added at 12 hours

[8] = test system: sulfate-reducing bacteria; conditions: background art; cited from earlier work
bacteria = conditions: background art; cited from earlier work
anaerobic bacteria = conditions: background art; cited from earlier work
[9] = 0 h, before addition of 5 ppm dithionite-reduced compound at 15 h, control 0.02
[10] = 2 h, before addition of 5 ppm dithionite-reduced compound at 15 h, control 0.02
[11] = 12 h, before addition of 5 ppm dithionite-reduced compound at 15 h, control 0.08
[12] = 15 h, time of addition of 5 ppm dithionite-reduced compound, control 0.18
[13] = 17 h, 5 ppm dithionite-reduced compound added at 15 h, control 0.26
[14] = 20 h, 5 ppm dithionite-reduced compound added at 15 h, control 0.37
[15] = 25 h, 5 ppm dithionite-reduced compound added at 15 h, control 0.50
[16] = 30 h, 5 ppm dithionite-reduced compound added at 15 h, control 0.98
[17] = 45 h, 5 ppm dithionite-reduced compound added at 15 h, control 1.50
[18] = 0 h of growth, before addition of 3 ppm inhibitor at 12 h
[19] = 10 h of growth, before addition of 3 ppm inhibitor at 12 h
[20] = 12 h of growth, 3 ppm inhibitor added at 12 h
[21] = 14 h of growth, 3 ppm inhibitor added at 12 h
[22] = 18 h of growth, 3 ppm inhibitor added at 12 h
[23] = 20 h of growth, 3 ppm inhibitor added at 12 h
[24] = 24 h of growth, 3 ppm inhibitor added at 12 h
[25] = 29 h of growth, 3 ppm inhibitor added at 12 h
[26] = 34 h of growth, 3 ppm inhibitor added at 12 h
[27] = 62 h of growth, 3 ppm inhibitor added at 12 h
[28] = 92 h of growth, 3 ppm inhibitor added at 12 h

For `O=C1c2ccccc2C(=O)c2c1ccc(O)c2O` [1,2-Dihydroxyanthraquinone], the inhibition at 10 ppm [1] is given as 68.9% and the “antibacterial activity (in words)” value [2] is given as “either inactive against these strains or required concentrations in excess of 100 to 1000 ppm for inhibition”.

In the case of `O=C1c2cc(O)cc(O)c2C(=O)c2c(O)ccc(O)c21` [1,4,6,8-tetrahydroxyanthraquinone], the “antibacterial activity (in words)” value [3] is listed as “inhibited 4 species of Bacillus, one strain of Nocardia, one strain (out of four tested) of Streptomyces and one of the Gram negative Proteus” and the “antibacterial activity (in words)” value [4] is listed as “did not affect any species of E. coli, Pseudomonas, Salmonella or Sarcina”.

For `Nc1ccc(O)c2c1C(=O)c1ccccc1C2=O` [1-Amino-4-hydroxyanthraquinone], the inhibition at 30 ppm [1] is listed as 54.3% and the “antibacterial activity (in words)” value [2] is listed as “either inactive against these strains or required concentrations in excess of 100 to 1000 ppm for inhibition”.

In the case of `O=C1c2ccccc2C(=O)c2c(Cl)cccc21` [1-Chloroanthraquinone], the “Optical Density @ 660 nm” value (D. desulfuricans G100A [5]; [9]) is reported as 0.02, the “Optical Density @ 660 nm” value (D. desulfuricans G100A [5]; [10]) is reported as 0.02 and the “Optical Density @ 660 nm” value (D. desulfuricans G100A [5]; [11]) is reported as 0.08. For the same compound, the “Optical Density @ 660 nm” value (D. desulfuricans G100A [5]; [12]) was 0.15, the “Optical Density @ 660 nm” value (D. desulfuricans G100A [5]; [13]) was 0.20 and the “Optical Density @ 660 nm” value (D. desulfuricans G100A [5]; [14]) was 0.21. For the same compound, the “Optical Density @ 660 nm” value (D. desulfuricans G100A [5]; [15]) was 0.22, the “Optical Density @ 660 nm” value (D. desulfuricans G100A [5]; [16]) was 0.22 and the “Optical Density @ 660 nm” value (D. desulfuricans G100A [5]; [17]) was 0.24. The inhibition at 30 ppm [1] was 20.8%, the activity at 0.1 ppm (Desulfovibrio gigas) was 81% and the activity at 0.5 ppm (Desulfovibrio gigas) was 26%. The activity at 2 ppm (Desulfovibrio gigas) was 1.6%, the activity at 5 ppm (Desulfovibrio gigas) was 1.3% and the “inhibition of sulfide production (in words)” value (shortened to “inhibition … (in words)”) (Desulfovibrio gigas) was “inhibitory properties”. The activity at 0.6 ppm [6] was 74%, the activity at 1.5 ppm [6] was 50% and the activity at 3 ppm [6] was 38%. The “optical density reading at 660 nm” value (D. desulfuricans G100A [7]; [18]) was “.01”, the “optical density reading at 660 nm” value (D. desulfuricans G100A [7]; [19]) was “.11” and the “optical density reading at 660 nm” value (D. desulfuricans G100A [7]; [20]) was “.12”. The “optical density reading at 660 nm” value (D. desulfuricans G100A [7]; [21]) was “.12”, the “optical density reading at 660 nm” value (D. desulfuricans G100A [7]; [22]) was “.27” and the “optical density reading at 660 nm” value (D. desulfuricans G100A [7]; [23]) was “.32”. For the same compound, the “optical density reading at 660 nm” value (D. desulfuricans G100A [7]; [24]) was “.32”, the “optical density reading at 660 nm” value (D. desulfuricans G100A [7]; [25]) was “.30” and the “optical density reading at 660 nm” value (D. desulfuricans G100A [7]; [26]) was “.32”. The “optical density reading at 660 nm” value (D. desulfuricans G100A [7]; [27]) was “.26” and the “optical density reading at 660 nm” value (D. desulfuricans G100A [7]; [28]) was “.23”.

For `N#CC(Br)(Br)C(N)=O` [2,2-Dibromo-3-nitrilopropionamide], the “effective / use concentration against sulfate-reducers” value [8] is given as 3-12 ppm.

For `O=C(O)c1cc2c(cc1Cl)C(=O)c1ccccc1C2=O` [2-Chloroanthraquinone-3-carboxylic acid, 3-Chloro-9,10-dihydro-9,10-dioxo-2-anthracenecarboxylic acid], the “Optical Density @ 660 nm” value (D. desulfuricans G100A [5]; [9]) was 0.02, the “Optical Density @ 660 nm” value (D. desulfuricans G100A [5]; [10]) was 0.02 and the “Optical Density @ 660 nm” value (D. desulfuricans G100A [5]; [11]) was 0.07. The “Optical Density @ 660 nm” value (D. desulfuricans G100A [5]; [12]) was 0.1, the “Optical Density @ 660 nm” value (D. desulfuricans G100A [5]; [13]) was 0.15 and the “Optical Density @ 660 nm” value (D. desulfuricans G100A [5]; [14]) was 0.17. For the same compound, the “Optical Density @ 660 nm” value (D. desulfuricans G100A [5]; [15]) was 0.17, the “Optical Density @ 660 nm” value (D. desulfuricans G100A [5]; [16]) was 0.16 and the “Optical Density @ 660 nm” value (D. desulfuricans G100A [5]; [17]) was 0.22. For the same compound, the inhibition at 10 ppm [1] was 100%, the activity at 0.6 ppm [6] was 79% and the activity at 1.5 ppm [6] was 55%. For the same compound, the activity at 3 ppm [6] was 41%, the “optical density reading at 660 nm” value (D. desulfuricans G100A [7]; [18]) was “.01” and the “optical density reading at 660 nm” value (D. desulfuricans G100A [7]; [19]) was “.10”. The “optical density reading at 660 nm” value (D. desulfuricans G100A [7]; [20]) was “.16”, the “optical density reading at 660 nm” value (D. desulfuricans G100A [7]; [21]) was “.21” and the “optical density reading at 660 nm” value (D. desulfuricans G100A [7]; [22]) was “.36”. The “optical density reading at 660 nm” value (D. desulfuricans G100A [7]; [23]) was “.38”, the “optical density reading at 660 nm” value (D. desulfuricans G100A [7]; [24]) was “.36” and the “optical density reading at 660 nm” value (D. desulfuricans G100A [7]; [25]) was “.37”. For the same compound, the “optical density reading at 660 nm” value (D. desulfuricans G100A [7]; [26]) was “.37”, the “optical density reading at 660 nm” value (D. desulfuricans G100A [7]; [27]) was “.34” and the “optical density reading at 660 nm” value (D. desulfuricans G100A [7]; [28]) was “.25”.

Compound `O=C1c2ccccc2C(=O)c2cc(C(F)(F)F)ccc21` [2-trifluoromethylanthraquinone, 2-Trifluoromethylanthraquinone] has an activity at 0.1 ppm (Desulfovibrio gigas) of 99%, an activity at 0.5 ppm (Desulfovibrio gigas) of 17% and an activity at 2 ppm (Desulfovibrio gigas) of 1.7%. For the same compound, the activity at 5 ppm (Desulfovibrio gigas) was 1.5% and the “inhibition … (in words)” value (Desulfovibrio gigas) was “inhibitory effect”.

For `[H]/N=C(\N/C(=N/[H])NCCCCCCNC(=N)NC(=N)Nc1ccc(Cl)cc1)Nc1ccc(Cl)cc1` [Chlorhexidine, reference compound], the “effective / use concentration against sulfate-reducers” value [8] is listed as 1-10 ppm, the “inhibition … (in words)” value [1] is listed as “inhibits sulfide production” and the “% inhibition of sulfide formation” value ([1]; Table III, Example 3) is listed as 88.7%.

For `O=C(O)c1cc(O)c2c(c1)C(=O)c1cccc(O)c1C2=O` [Rhein, 9,10-Dihydro-4,5-dihydroxy-9,10-dioxo-2-anthracenecarboxylic acid], the inhibition at 30 ppm [1] is listed as 48.6% and the “antibacterial activity (in words)” value (bacteria) is listed as “active component of leaf extracts of Cassia sp”.

In the case of `Cc1ncc([N+](=O)[O-])n1CCO` [metronidazole], the “effectiveness (in words)” value (anaerobic bacteria) is listed as “generally effective against anaerobic bacteria”.

For molybdate, the “effective / use concentration against sulfate-reducers” value [8] is given as 1000-4000 ppm.
